Reference: PMC3141083 (Journal of medicinal chemistry, 2011)
Where two headings read alike, the source gives them in different places.

What was measured:
[1] = tested on: A549, DU-145, KB, HCT-8 cancer cell lines; assay: Cytotoxicity screen, stated over the panel of four cancer cell lines; type: cell-based
[2] = tested on: KB (nasopharyngeal); assay: Cytotoxicity; type: cell-based; conditions: KB cell line
[3] = read-out: GI50 (all tested cancer cell lines)

**Q.** With `COc1ccc2c3c(c4cc(OC)c(OC)cc4c2c1)C[C@H]1CCN(c2ccccc2)CN1C3` [Compound 10b] as the molecule, how does the GI50 [1, 3] read?
**A.** > 20 µM

**Q.** `COc1ccc2c3c(c4cc(OC)c(OC)cc4c2c1)C[C@H]1CCCCN1C3` [crypto-pleurine, R-cryptopleurine, reference compound] was tested. Which “GI50 KB” value [2] did it give?
**A.** 0.00151 ± 0.00033 µM

**Q.** With `COc1ccc2c3c(c4cc(OC)c(OC)cc4c2c1)C[C@H]1CCOCCN1C3` [Compound 16] as the molecule, how does the “GI50 KB” value [2] read?
**A.** 0.068 ± 0.01 µM

**Q.** Which “GI50 KB” value [2] does the source give for `COc1ccc2c3c(c4cc(OC)c(OC)cc4c2c1)C[C@H]1CCCCCN1C3` [Compound 15] here?
**A.** 0.102 ± 0.019 µM

**Q.** Which “GI50 KB” value [2] does the source give for `COc1ccc2c3c(c4cc(OC)c(OC)cc4c2c1)C[C@H]1COCCN1C3` [Compound 11, (S)-13-Oxa-cryptopleurine] here?
**A.** 0.037 ± 0.009 µM

**Q.** With `COc1ccc2c3c(c4cc(OC)c(OC)cc4c2c1)C[C@@H]1CCOCN1C3` [Compound 14, (R)-12-Oxa-cryptopleurine] as the molecule, how does the GI50 [1, 3] read?
**A.** > 1 µM

**Q.** `COc1ccc2c3c(c4cc(OC)c(OC)cc4c2c1)C[C@H]1CCOCN1C3` [Compound 13, (S)-12-Oxa-cryptopleurine] was tested. Which GI50 [1, 3] did it give?
**A.** > 1 µM

**Q.** With `COc1ccc2c3c(c4cc(OC)c(OC)cc4c2c1)C[C@H]1CCN(Cc2ccccc2)CN1C3` [Compound 10d] as the molecule, how does the GI50 [1, 3] read?
**A.** > 20 µM

**Q.** Which GI50 ([1]; read-out: average GI50) does the source give for `COc1ccc2c3c(c4cc(OC)c(OC)cc4c2c1)C[C@H]1CN(c2ccccc2)CN1C3` [Compound 3f] here?
**A.** > 20 µM

**Q.** With `COc1ccc2c3c(c4cc(OC)c(OC)cc4c2c1)C[C@H]1CCCN1C3` [R-antofine, reference compound] as the molecule, how does the “GI50 KB” value [2] read?
**A.** 0.036 ± 0.008 µM
